Reference: PubChem BioAssay (NCI)
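Tested at 5 concentrations; 48 h exposure; 96-well plates; endpoints linearly interpolated, else capped at highest concentration. The concentration for full growth arrest is given as TGI.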

Tests used:
Assay in all cases: growth of human tumour cells (NCI), 48 h
MDA-MB-435 = tested on: MDA-MB-435
HCT-15 colon = tested on: HCT-15 colon
NCI-H23 lung = tested on: NCI-H23 lung
DU-145 prostate = tested on: DU-145 prostate
NCI-H226 lung = tested on: NCI-H226 lung
HL-60(TB) leukemia = tested on: HL-60(TB) leukemia
NCI-H522 lung = tested on: NCI-H522 lung
PC-3 prostate = tested on: PC-3 prostate
MOLT-4 leukemia = tested on: MOLT-4 leukemia
SF-268 CNS = tested on: SF-268 CNS
SK-MEL-28 melanoma = tested on: SK-MEL-28 melanoma
CAKI-1 renal = tested on: CAKI-1 renal
HT29 colon = tested on: HT29 colon
CCRF-CEM leukemia = tested on: CCRF-CEM leukemia
BT-549 breast = tested on: BT-549 breast
T-47D breast = tested on: T-47D breast
SN12C renal = tested on: SN12C renal
IGROV1 ovarian = tested on: IGROV1 ovarian
TK-10 renal = tested on: TK-10 renal
UO-31 renal = tested on: UO-31 renal
COLO 205 colon = tested on: COLO 205 colon
MDA-N = tested on: MDA-N
UACC-62 melanoma = tested on: UACC-62 melanoma
NCI/ADR-RES ovarian = tested on: NCI/ADR-RES ovarian
RXF 393 renal = tested on: RXF 393 renal
UACC-257 melanoma = tested on: UACC-257 melanoma
SF-295 CNS = tested on: SF-295 CNS
OVCAR-8 ovarian = tested on: OVCAR-8 ovarian
M14 melanoma = tested on: M14 melanoma
EKVX NSCLC = tested on: EKVX NSCLC
SNB-75 CNS = tested on: SNB-75 CNS
OVCAR-5 ovarian = tested on: OVCAR-5 ovarian
A549 NSCLC = tested on: A549 NSCLC
LOX IMVI melanoma = tested on: LOX IMVI melanoma
ACHN renal = tested on: ACHN renal
HCC-2998 colon = tested on: HCC-2998 colon
SF-539 CNS = tested on: SF-539 CNS
SR leukemia = tested on: SR leukemia
SW-620 colon = tested on: SW-620 colon
HCT-116 colon = tested on: HCT-116 colon
RPMI-8226 leukemia = tested on: RPMI-8226 leukemia
U251 CNS = tested on: U251 CNS
MCF7 breast = tested on: MCF7 breast
KM12 colon = tested on: KM12 colon
786-0 renal = tested on: 786-0 renal
K-562 leukemia = tested on: K-562 leukemia
MDA-MB-231 breast = tested on: MDA-MB-231 breast
SK-OV-3 ovarian = tested on: SK-OV-3 ovarian
SNB-19 CNS = tested on: SNB-19 CNS
MALME-3M melanoma = tested on: MALME-3M melanoma
SK-MEL-5 melanoma = tested on: SK-MEL-5 melanoma
OVCAR-3 ovarian = tested on: OVCAR-3 ovarian
HOP-62 NSCLC = tested on: HOP-62 NSCLC
A498 renal = tested on: A498 renal
NCI-H460 lung = tested on: NCI-H460 lung
SK-MEL-2 melanoma = tested on: SK-MEL-2 melanoma
OVCAR-4 ovarian = tested on: OVCAR-4 ovarian
HS 578T breast = tested on: HS 578T breast
HOP-92 NSCLC = tested on: HOP-92 NSCLC

`C=CCN(Cc1ccncc1)C(=O)C(O)(c1ccccc1)c1ccccc1` showed a TGI (MDA-MB-435) of over 100 µM, a TGI (HCT-15 colon) of over 100 µM and a TGI (NCI-H23 lung) of over 100 µM. The TGI (DU-145 prostate) was over 100 µM, the TGI (NCI-H226 lung) was over 100 µM and the TGI (HL-60(TB) leukemia) was over 100 µM. The TGI (NCI-H522 lung) was over 100 µM, the TGI (PC-3 prostate) was over 100 µM and the TGI (MOLT-4 leukemia) was over 100 µM. For the same molecule, the TGI (SF-268 CNS) was over 100 µM, the TGI (SK-MEL-28 melanoma) was over 100 µM and the TGI (CAKI-1 renal) was over 100 µM. For the same molecule, the TGI (HT29 colon) was over 100 µM, the TGI (CCRF-CEM leukemia) was over 100 µM and the TGI (BT-549 breast) was over 100 µM. For the same molecule, the TGI (T-47D breast) was over 100 µM, the TGI (SN12C renal) was over 100 µM and the TGI (IGROV1 ovarian) was over 100 µM. For the same molecule, the TGI (TK-10 renal) was over 100 µM, the TGI (UO-31 renal) was 56.5 µM and the TGI (COLO 205 colon) was over 100 µM. For the same molecule, the TGI (MDA-N) was over 100 µM, the TGI (UACC-62 melanoma) was over 100 µM and the TGI (NCI/ADR-RES ovarian) was 37.4 µM. It also gave a TGI (RXF 393 renal) of over 100 µM, a TGI (UACC-257 melanoma) of over 100 µM and a TGI (SF-295 CNS) of over 100 µM. The TGI (OVCAR-8 ovarian) was over 100 µM, the TGI (M14 melanoma) was over 100 µM and the TGI (EKVX NSCLC) was over 100 µM. For the same molecule, the TGI (SNB-75 CNS) was over 100 µM, the TGI (OVCAR-5 ovarian) was over 100 µM and the TGI (A549 NSCLC) was over 100 µM. It also gave a TGI (LOX IMVI melanoma) of over 100 µM, a TGI (ACHN renal) of over 100 µM and a TGI (HCC-2998 colon) of over 100 µM. For the same molecule, the TGI (SF-539 CNS) was over 100 µM, the TGI (SR leukemia) was over 100 µM and the TGI (SW-620 colon) was over 100 µM. The TGI (HCT-116 colon) was over 100 µM, the TGI (RPMI-8226 leukemia) was 78.6 µM and the TGI (U251 CNS) was over 100 µM. The TGI (MCF7 breast) was over 100 µM, the TGI (KM12 colon) was over 100 µM and the TGI (786-0 renal) was over 100 µM. For the same molecule, the TGI (K-562 leukemia) was over 100 µM, the TGI (MDA-MB-231 breast) was over 100 µM and the TGI (SK-OV-3 ovarian) was over 100 µM. The TGI (SNB-19 CNS) was over 100 µM, the TGI (MALME-3M melanoma) was over 100 µM and the TGI (SK-MEL-5 melanoma) was over 100 µM. For the same molecule, the TGI (OVCAR-3 ovarian) was over 100 µM and the TGI (HOP-62 NSCLC) was over 100 µM.

`CC(C)=CC(O)C(C(O)CCC1(C)OCCO1)S(=O)(=O)c1ccccc1` (stereo not given) showed a TGI (MDA-MB-435) of over 100 µM, a TGI (HCT-15 colon) of over 100 µM and a TGI (NCI-H23 lung) of over 100 µM. The TGI (A498 renal) was over 100 µM, the TGI (NCI-H226 lung) was over 100 µM and the TGI (NCI-H522 lung) was over 100 µM. It also gave a TGI (PC-3 prostate) of over 100 µM, a TGI (SF-268 CNS) of over 100 µM and a TGI (NCI-H460 lung) of over 100 µM. The TGI (SK-MEL-28 melanoma) was over 100 µM, the TGI (CAKI-1 renal) was over 100 µM and the TGI (SK-MEL-2 melanoma) was over 100 µM. For the same molecule, the TGI (CCRF-CEM leukemia) was over 100 µM, the TGI (BT-549 breast) was over 100 µM and the TGI (T-47D breast) was over 100 µM. For the same molecule, the TGI (SN12C renal) was over 100 µM, the TGI (IGROV1 ovarian) was over 100 µM and the TGI (TK-10 renal) was over 100 µM. For the same molecule, the TGI (UO-31 renal) was over 100 µM, the TGI (COLO 205 colon) was over 100 µM and the TGI (MDA-N) was over 100 µM. For the same molecule, the TGI (NCI/ADR-RES ovarian) was over 100 µM, the TGI (RXF 393 renal) was over 100 µM and the TGI (UACC-257 melanoma) was over 100 µM. For the same molecule, the TGI (SF-295 CNS) was over 100 µM, the TGI (OVCAR-8 ovarian) was over 100 µM and the TGI (M14 melanoma) was over 100 µM. The TGI (EKVX NSCLC) was over 100 µM, the TGI (SNB-75 CNS) was over 100 µM and the TGI (OVCAR-5 ovarian) was over 100 µM. It also gave a TGI (A549 NSCLC) of over 100 µM, a TGI (LOX IMVI melanoma) of over 100 µM and a TGI (ACHN renal) of over 100 µM. The TGI (HCC-2998 colon) was over 100 µM, the TGI (SF-539 CNS) was over 100 µM and the TGI (SW-620 colon) was over 100 µM. For the same molecule, the TGI (HCT-116 colon) was over 100 µM, the TGI (RPMI-8226 leukemia) was over 100 µM and the TGI (U251 CNS) was over 100 µM. It also gave a TGI (MCF7 breast) of over 100 µM, a TGI (KM12 colon) of over 100 µM and a TGI (786-0 renal) of over 100 µM. The TGI (MDA-MB-231 breast) was over 100 µM, the TGI (SK-OV-3 ovarian) was over 100 µM and the TGI (OVCAR-4 ovarian) was over 100 µM. For the same molecule, the TGI (SNB-19 CNS) was over 100 µM, the TGI (MALME-3M melanoma) was over 100 µM and the TGI (OVCAR-3 ovarian) was over 100 µM. The TGI (HOP-62 NSCLC) was over 100 µM.

`C[n+]1c2ccccc2n2c3ccccc3c(NCCCN3CCOCC3)c(C#N)c21` gave a TGI (MDA-MB-435) of 14.1 µM, a TGI (HCT-15 colon) of 19.4 µM and a TGI (NCI-H23 lung) of 8.08 µM. For the same molecule, the TGI (DU-145 prostate) was 18.2 µM, the TGI (A498 renal) was over 29 µM and the TGI (NCI-H226 lung) was 6.2 µM. The TGI (HL-60(TB) leukemia) was over 100 µM, the TGI (NCI-H522 lung) was 2.25 µM and the TGI (PC-3 prostate) was over 30 µM. For the same molecule, the TGI (SF-268 CNS) was 5.39 µM, the TGI (NCI-H460 lung) was 2.75 µM and the TGI (SK-MEL-28 melanoma) was over 20.4 µM. For the same molecule, the TGI (CAKI-1 renal) was 8.38 µM, the TGI (SK-MEL-2 melanoma) was 6.42 µM and the TGI (HT29 colon) was over 100 µM. The TGI (CCRF-CEM leukemia) was over 100 µM, the TGI (BT-549 breast) was over 100 µM and the TGI (T-47D breast) was over 26.3 µM. For the same molecule, the TGI (SN12C renal) was 6.44 µM, the TGI (TK-10 renal) was 10.8 µM and the TGI (UO-31 renal) was 15.3 µM. For the same molecule, the TGI (COLO 205 colon) was 3.15 µM, the TGI (MDA-N) was 2.9 µM and the TGI (UACC-62 melanoma) was 13.8 µM. It also gave a TGI (NCI/ADR-RES ovarian) of over 76.8 µM, a TGI (RXF 393 renal) of 3.91 µM and a TGI (UACC-257 melanoma) of 16.7 µM. It also gave a TGI (SF-295 CNS) of 14.8 µM, a TGI (HS 578T breast) of 6.47 µM and a TGI (M14 melanoma) of 2.85 µM. It also gave a TGI (EKVX NSCLC) of 15.1 µM, a TGI (SNB-75 CNS) of 5.4 µM and a TGI (OVCAR-5 ovarian) of 5.61 µM. It also gave a TGI (A549 NSCLC) of 23.8 µM, a TGI (LOX IMVI melanoma) of 2.64 µM and a TGI (ACHN renal) of over 25.5 µM. For the same molecule, the TGI (HCC-2998 colon) was 3 µM, the TGI (SF-539 CNS) was 3.57 µM and the TGI (SR leukemia) was over 100 µM. For the same molecule, the TGI (SW-620 colon) was 36.6 µM, the TGI (HOP-92 NSCLC) was over 100 µM and the TGI (HCT-116 colon) was 8.32 µM. The TGI (U251 CNS) was over 28.4 µM, the TGI (KM12 colon) was 15.8 µM and the TGI (786-0 renal) was 8.32 µM. It also gave a TGI (MDA-MB-231 breast) of 4.94 µM, a TGI (SK-OV-3 ovarian) of 31.9 µM and a TGI (OVCAR-4 ovarian) of 8.81 µM. It also gave a TGI (SNB-19 CNS) of over 26.8 µM, a TGI (MALME-3M melanoma) of 3.96 µM and a TGI (SK-MEL-5 melanoma) of 9.87 µM. It also gave a TGI (OVCAR-3 ovarian) of over 28.1 µM and a TGI (HOP-62 NSCLC) of over 33.5 µM.
